# According to patent publication US10246453B2, “Benzenesulfonamide compounds and their use as therapeutic agents” (Xenon Pharmaceuticals Inc., priority 2016, dated 2019):
# Counter-ions that a name gives are not always drawn.
# Legend:
# NaV1.6 = NaV1.6 (Homo sapiens (Human), UniProt Q9UQD0); experiment: Sodium Influx Assay (Flux), NaV1.6; conditions: read-out: Flux NaV1.6 IC50; Trex HEK293 cells, ANG2 dye; arithmetic mean
# NaV1.1 = NaV1.1 (Homo sapiens (Human), UniProt P35498); experiment: Sodium Influx Assay (Flux), NaV1.1; format: cell-based; conditions: Trex HEK293 cells, ANG2 dye; arithmetic mean
# NaV1.5 = NaV1.5 (Homo sapiens (Human), UniProt Q14524); experiment: Sodium Influx Assay (Flux), NaV1.5; conditions: read-out: Flux NaV1.5 IC50; Trex HEK293 cells, ANG2 dye; arithmetic mean
# Sequence of NaV1.5 (Q14524 other isoform, or with tags, fused parts or gaps): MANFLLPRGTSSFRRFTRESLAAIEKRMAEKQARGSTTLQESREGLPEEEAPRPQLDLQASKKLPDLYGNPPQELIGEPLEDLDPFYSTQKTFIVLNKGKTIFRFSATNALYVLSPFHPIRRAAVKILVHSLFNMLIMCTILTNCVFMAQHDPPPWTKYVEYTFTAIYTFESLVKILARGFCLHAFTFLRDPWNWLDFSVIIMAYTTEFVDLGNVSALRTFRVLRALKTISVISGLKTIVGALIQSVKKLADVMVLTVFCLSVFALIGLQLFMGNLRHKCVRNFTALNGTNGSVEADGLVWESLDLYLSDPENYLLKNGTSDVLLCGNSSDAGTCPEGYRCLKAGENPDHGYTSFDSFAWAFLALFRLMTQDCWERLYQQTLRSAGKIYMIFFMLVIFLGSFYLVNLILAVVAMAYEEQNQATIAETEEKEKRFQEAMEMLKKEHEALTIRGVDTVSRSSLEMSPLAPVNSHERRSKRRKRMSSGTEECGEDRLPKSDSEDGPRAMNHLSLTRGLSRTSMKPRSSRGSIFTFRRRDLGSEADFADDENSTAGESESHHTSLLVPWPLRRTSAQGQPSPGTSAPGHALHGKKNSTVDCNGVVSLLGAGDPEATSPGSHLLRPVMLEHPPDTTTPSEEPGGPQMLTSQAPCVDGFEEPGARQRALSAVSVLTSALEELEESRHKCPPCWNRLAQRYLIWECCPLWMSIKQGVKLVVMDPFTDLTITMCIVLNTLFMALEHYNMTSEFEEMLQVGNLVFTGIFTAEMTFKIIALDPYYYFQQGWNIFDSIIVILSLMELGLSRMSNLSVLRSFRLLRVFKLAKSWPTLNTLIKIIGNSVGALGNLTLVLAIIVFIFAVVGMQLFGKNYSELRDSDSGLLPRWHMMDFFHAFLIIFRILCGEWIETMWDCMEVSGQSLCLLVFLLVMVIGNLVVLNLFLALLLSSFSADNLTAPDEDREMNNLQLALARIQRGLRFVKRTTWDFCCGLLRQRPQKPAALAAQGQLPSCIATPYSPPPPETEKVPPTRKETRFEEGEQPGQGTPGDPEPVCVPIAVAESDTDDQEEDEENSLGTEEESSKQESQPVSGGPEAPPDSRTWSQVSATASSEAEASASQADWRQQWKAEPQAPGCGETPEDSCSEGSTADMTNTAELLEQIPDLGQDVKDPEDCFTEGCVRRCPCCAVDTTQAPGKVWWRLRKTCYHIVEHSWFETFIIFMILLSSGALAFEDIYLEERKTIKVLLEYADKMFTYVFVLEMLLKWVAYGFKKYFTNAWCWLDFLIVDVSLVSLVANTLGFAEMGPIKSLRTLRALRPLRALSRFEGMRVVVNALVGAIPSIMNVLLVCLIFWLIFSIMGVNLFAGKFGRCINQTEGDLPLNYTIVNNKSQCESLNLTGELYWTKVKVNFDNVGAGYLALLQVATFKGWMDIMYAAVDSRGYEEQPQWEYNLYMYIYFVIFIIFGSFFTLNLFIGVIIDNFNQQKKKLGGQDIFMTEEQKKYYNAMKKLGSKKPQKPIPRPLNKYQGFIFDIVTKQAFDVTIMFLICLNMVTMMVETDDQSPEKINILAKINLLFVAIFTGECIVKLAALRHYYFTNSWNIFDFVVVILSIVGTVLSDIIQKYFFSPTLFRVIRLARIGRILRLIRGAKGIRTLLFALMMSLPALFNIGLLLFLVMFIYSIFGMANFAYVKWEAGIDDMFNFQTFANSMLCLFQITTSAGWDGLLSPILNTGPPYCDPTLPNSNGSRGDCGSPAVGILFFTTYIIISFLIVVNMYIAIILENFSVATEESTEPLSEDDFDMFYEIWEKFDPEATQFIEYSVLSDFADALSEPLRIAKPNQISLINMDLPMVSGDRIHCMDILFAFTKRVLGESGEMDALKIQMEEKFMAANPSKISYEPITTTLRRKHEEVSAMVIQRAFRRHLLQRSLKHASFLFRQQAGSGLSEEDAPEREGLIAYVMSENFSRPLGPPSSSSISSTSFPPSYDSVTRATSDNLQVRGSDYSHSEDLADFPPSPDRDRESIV
Structure (SMILES),IC50 (NaV1.6) [µM],IC50 (NaV1.1) [µM],IC50 (NaV1.5) [µM]
"C[C@H]1C[C@H](N(C)c2cc(F)c(S(=O)(=O)Nc3cscn3)cc2Cl)CN1Cc1ccccc1 [Example 231, 4-(((3S,5S)-1-benzyl-5-methylpyrrolidin-3-yl)(methyl)amino)-5-chloro-2-fluoro-N-(thiazol-4-yl)benzenesulfonamide formate]",5.51,25.5,15.1
"O=S(=O)(Nc1cscn1)c1ccc(OC2CCN(Cc3cccc(C(F)F)c3)CC2)c(Cl)c1 [Example 232, 3-chloro-4-((1-(3-(difluoromethyl)benzyl)piperidin-4-yl)oxy)-N-(thiazol-4-yl)benzenesulfonamide formate]",0.858,4.6,3.76
"Cc1c(NC2(C)CN(Cc3ccccc3)C2)cc(F)c(S(=O)(=O)Nc2cscn2)c1F [Example 233, 4-((1-benzyl-3-methylazetidin-3-yl)amino)-2,6-difluoro-3-methyl-N-(thiazol-4-yl)benzenesulfonamide 2,2,2-trifluoroacetate]",0.375,6.02,27.3
"O=S(=O)(Nc1nccs1)c1ccc(OC2CCN(CCc3ccccc3)CC2)c(Cl)c1 [Example 234, 3-chloro-4-((1-phenethylpiperidin-4-yl)oxy)-N-(thiazol-2-yl)benzenesulfonamide]",1.42,6.87,20.7
"Cc1c(N(C)[C@H]2CCN(Cc3cccc(F)c3)C2)cc(F)c(S(=O)(=O)Nc2cscn2)c1F [Example 235, (S)-2,6-difluoro-4-((1-(3-fluorobenzyl)pyrrolidin-3-yl)(methyl)amino)-3-methyl-N-(thiazol-4-yl)benzenesulfonamide formate]",0.047,10.2,15.4
"Cc1c(N(C)[C@H]2CCN(Cc3ccccc3F)C2)cc(F)c(S(=O)(=O)Nc2cscn2)c1F [Example 236, (S)-2,6-difluoro-4-((1-(2-fluorobenzyl)pyrrolidin-3-yl)(methyl)amino)-3-methyl-N-(thiazol-4-yl)benzenesulfonamide formate]",0.067,24.3,> 30
"Cc1c(N(C)[C@H]2CCN(Cc3cccc(F)c3F)C2)cc(F)c(S(=O)(=O)Nc2cscn2)c1F [Example 237, (S)-4-((1-(2,3-difluorobenzyl)pyrrolidin-3-yl)(methyl)amino)-2,6-difluoro-3-methyl-N-(thiazol-4-yl)benzenesulfonamide formate]",0.064,8.52,14.7
"Cc1cc(S(=O)(=O)Nc2cscn2)c(F)cc1OC1CCN(Cc2ccccc2)CC1 [Example 239, 4-((1-benzylpiperidin-4-yl)oxy)-2-fluoro-5-methyl-N-(thiazol-4-yl)benzenesulfonamide]",0.708,27,16.5
"Cc1c(N(C)[C@H]2CCN(Cc3cc(F)ccc3F)C2)cc(F)c(S(=O)(=O)Nc2cscn2)c1F [Example 240, (S)-4-((1-(2,5-difluorobenzyl)pyrrolidin-3-yl)(methyl)amino)-2,6-difluoro-3-methyl-N-(thiazol-4-yl)benzenesulfonamide 2,2,2-trifluoroacetate]",0.093,8.06,7.46
"CN(c1ccc(S(=O)(=O)Nc2nccs2)cc1Cl)C1(C)CCN(Cc2ccccc2)C1 (stereo not drawn) [Example 241, 4-((1-benzyl-3-methylpyrrolidin-3-yl)(methyl)amino)-3-chloro-N-(thiazol-2-yl)benzenesulfonamide]",0.274,9.93,15.1
"CC[C@H](c1ccccc1)N1CC[C@H](N(C)c2cc(F)c(S(=O)(=O)Nc3cscn3)cc2Cl)C1 [Example 243, 5-chloro-2-fluoro-4-(methyl((S)-1-((R)-1-phenylpropyl)pyrrolidin-3-yl)amino)-N-(thiazol-4-yl)benzenesulfonamide]",1.06,13.1,25.7
"CN(c1cc(F)c(S(=O)(=O)Nc2cscn2)cc1Cl)[C@H]1CCN(C2(c3ccccc3F)CCC2)C1 [Example 244, (S)-5-chloro-2-fluoro-4-((1-(1-(2-fluorophenyl)cyclobutyl)pyrrolidin-3-yl)(methyl)amino)-N-(thiazol-4-yl)benzenesulfonamide formate]",1.23,6.94,5.08
"Cc1nc(CN2CC[C@H](N(C)c3cc(F)c(S(=O)(=O)Nc4cscn4)cc3C)C2)c(C)o1 [Example 245, (S)-4-((1-((2,5-dimethyloxazol-4-yl)methyl)pyrrolidin-3-yl)(methyl)amino)-2-fluoro-5-methyl-N-(thiazol-4-yl)benzenesulfonamide 2,2,2-trifluoroacetate]",2.12,> 30,> 30
"CN(c1ccc(S(=O)(=O)Nc2cscn2)c(F)c1Cl)[C@H]1CCN([C@H]2CCc3ccccc32)C1 [Example 247, 3-chloro-4-(((S)-1-((S)-2,3-dihydro-1H-inden-1-yl)pyrrolidin-3-yl)(methyl)amino)-2-fluoro-N-(thiazol-4-yl)benzenesulfonamide 2,2,2-trifluoroacetate]",0.469,6.87,14
"CC[C@@H](c1ccccc1Cl)N1CC[C@H](N(C)c2cc(F)c(S(=O)(=O)Nc3cscn3)cc2Cl)C1 [Example 248, 5-chloro-4-(((S)-1-((S)-1-(2-chlorophenyl)propyl)pyrrolidin-3-yl)(methyl)amino)-2-fluoro-N-(thiazol-4-yl)benzenesulfonamide 2,2,2-trifluoroacetate]",3.31,5.53,7.06
"C[C@@H](c1ccccc1)N1CC[C@H](N(C)c2ccc(S(=O)(=O)Nc3cscn3)cc2Cl)C1 [Example 250, 3-chloro-4-(methyl((S)-1-((S)-1-phenylethyl)pyrrolidin-3-yl)amino)-N-(thiazol-4-yl)benzenesulfonamide 2,2,2-trifluoroacetate]",1.42,5.5,6.48
"CN(c1ccc(S(=O)(=O)Nc2ncns2)cc1Cl)[C@H]1CCN(Cc2ccccc2Cl)C1 [Example 252, (S)-3-chloro-4-((1-(2-chlorobenzyl)pyrrolidin-3-yl)(methyl)amino)-N-(1,2,4-thiadiazol-5-yl)benzenesulfonamide 2,2,2-trifluoroacetate]",0.304,17.1,8.08
"CC1(Nc2ccc(S(=O)(=O)Nc3cscn3)cc2Cl)CN(Cc2ccccc2)C1 [Example 255, 4-((1-benzyl-3-methylazetidin-3-yl)amino)-3-chloro-N-(thiazol-4-yl)benzenesulfonamide 2,2,2-trifluoroacetate]",3.7,9.14,12.7
"O=S(=O)(Nc1cscn1)c1cc(Cl)c(N[C@H]2CCN(Cc3ccccc3)C2)cc1F [Example 258, (S)-4-((1-benzylpyrrolidin-3-yl)amino)-5-chloro-2-fluoro-N-(thiazol-4-yl)benzenesulfonamide formate]",7.98,12.9,15.4
"O=S(=O)(Nc1cscn1)c1cc(Cl)c(N[C@@H]2CCN(Cc3ccccc3)C2)cc1F [Example 261, (R)-4-((1-benzylpyrrolidin-3-yl)amino)-5-chloro-2-fluoro-N-(thiazol-4-yl)benzenesulfonamide]",6.04,8.29,24.6
"CN(c1cc(F)c(S(=O)(=O)Nc2cscn2)cc1Cl)[C@@H]1CCN(Cc2ccccc2)C1 [Example 262, (R)-4-((1-benzylpyrrolidin-3-yl)(methyl)amino)-5-chloro-2-fluoro-N-(thiazol-4-yl)benzenesulfonamide]",13.3,25.2,28.8
"O=S(=O)(Nc1cscn1)c1cc(Cl)c(N[C@@H]2CN(Cc3ccccc3)CC23CC3)cc1F [Example 264, (S)-4-((5-benzyl-5-azaspiro[2.4]heptan-7-yl)amino)-5-chloro-2-fluoro-N-(thiazol-4-yl)benzenesulfonamide 2,2,2-trifluoroacetate]",4.79,6.01,13.1
"CN(c1cc(F)c(S(=O)(=O)Nc2cscn2)cc1Cl)[C@@H]1CN(Cc2ccccc2)CC12CC2 [Example 265, (S)-4-((5-benzyl-5-azaspiro[2.4]heptan-7-yl)(methyl)amino)-5-chloro-2-fluoro-N-(thiazol-4-yl)benzenesulfonamide 2,2,2-trifluoroacetate]",4.79,6.35,6.8
"Cc1ccc(F)c(CN2CC[C@](C)(Nc3ccc(S(=O)(=O)Nc4cscn4)cc3Cl)C2)c1 [Example 266, (S)-3-chloro-4-((1-(2-fluoro-5-methylbenzyl)-3-methylpyrrolidin-3-yl)amino)-N-(thiazol-4-yl)benzenesulfonamide formate]",1.77,2.67,2.06
"O=S(=O)(Nc1cscn1)c1c(F)cc(O[C@H]2CCN(Cc3ccccc3)C2)c(Cl)c1F [Example 268, (S)-4-((1-benzylpyrrolidin-3-yl)oxy)-3-chloro-2,6-difluoro-N-(thiazol-4-yl)benzenesulfonamide hydrochloride]",4.92,> 30,28.2
"CN(c1cc(F)c(S(=O)(=O)Nc2cscn2)cc1C(F)F)[C@H]1CCN(Cc2ccccc2)C1 [Example 270, (S)-4-((1-benzylpyrrolidin-3-yl)(methyl)amino)-5-(difluoromethyl)-2-fluoro-N-(thiazol-4-yl)benzenesulfonamide formate]",4.74,21.9,28.7
"Cc1cc(S(=O)(=O)Nc2cscn2)c(F)cc1N[C@@H]1CCN(Cc2ccccc2)C1 [Example 271, (R)-4-((1-benzylpyrrolidin-3-yl)amino)-2-fluoro-5-methyl-N-(thiazol-4-yl)benzenesulfonamide formate]",4.09,8.7,8.18
